# Measured values taken from US20150197492A1, “NOVEL INDENO[1,2-c]QUINOLIN-11-ONE DERIVATIVES, PREPARATION METHOD AND APPLICATION THEREOF” (National Defense Medical Center, priority 2014, published 2015).
# Assays:
# Format in all cases: cell-based
# SR = test: cells
# A498 = test: cells
# HL-60 (TB) = test: cells
# CCRF-CEM = test: cells
# SF-295 = test: cells
# SF-539 = test: cells
# T-47D = test: cells
# HOP-62 = test: cells
# BT-549 = test: cells
# DU-145 = test: cells
# SN12C = test: cells
# NCI-H23 = test: cells
# HS 578T = test: cells
# SK-MEL-28 = test: cells
# K-562 = test: cells
# HCT-116 = test: cells
# NCI/ADR-RES = test: cells
# NCI-H460 = test: cells
# human PC-3 cells = test: Sulforhodamine B (SRB) assay, cytotoxicity against PC-3 cells; conditions: SRB assay, PC-3 cells
# Outline: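 PC-3 cells in 5% FBS were fixed with 10% TCA after 24 h as T0, then treated with compound for 48 h, fixed, stained with 0.4% SRB in 1% acetic acid and solubilized in 10 mmol/L Trizma base. Absorbance was read at 515 nm. GI% = 100−[(Tx−T0)/(C−T0)]×100, and IC50 is the concentration halving total protein.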
# U251 = test: cells; conditions: CNS Cancer U251
# 786-0 = test: cells
# RXF 393 = test: cells
# COLO 205 = test: cells
# [1] = system: 55 to 60 cancer cell lines; conditions: 10 μM
# NCI-H226 = test: cells
# IGROV1 = test: cells
# SW-620 = test: cells
# HT29 = test: cells
# KM12 = test: cells
# SK-MEL-5 = test: cells
# [2] = Homo sapiens, CNS Cancer SF-295
# [3] = Homo sapiens, CNS Cancer SF-539
# [4] = Homo sapiens, Non-Small Cell Lung Cancer HOP-62
# [5] = Homo sapiens, Non-Small Cell Lung Cancer NCI-H23
# [6] = Homo sapiens, K562, Leukemia K-562
# [7] = Homo sapiens, Colon Cancer HCT-116
# [8] = Homo sapiens, Colon Cancer COLO 205
# [9] = Homo sapiens, Colon Cancer SW-620
smiles,measurement,setting,value
"O=C1c2cc(Cl)ccc2-c2c(N3CCNCC3)nc3ccccc3c21 [SJ-10, 9-Chloro-6-(piperazin-1-yl)-11H-indeno[1,2-c]quinolin-11-one]",GI50,"SR; Homo sapiens, Leukemia SR",3.09 µM
same,LC50 (50% lethal concentration),"SR; Homo sapiens, Leukemia SR",> 100 µM
same,TGI,SR; Leukemia SR,>100 µM
same,growth percentage,"SR; SR (Leukemia), 10 μM, 48 hours",-55.19%
same,growth percentage,"A498; A498 (Renal Cancer), 10 μM, 48 hours",59.79%
same,GI50,"A498; Homo sapiens, Renal Cancer A498",2.63 µM
same,CC50,"A498; Homo sapiens, Renal Cancer A498, read-out: LC50 (the source's name)",> 100 µM
same,TGI,A498; Renal Cancer A498,>100 µM
same,growth percentage,"HL-60 (TB); HL-60 (TB) (Leukemia), 10 μM, 48 hours",-38.36%
same,GI50,"HL-60 (TB); Homo sapiens, Leukemia HL-60(TB)",36.9 µM
same,CC50,"HL-60 (TB); Homo sapiens, Leukemia HL-60(TB), read-out: LC50 (the source's name)",> 100 µM
same,TGI,HL-60 (TB); Leukemia HL-60(TB),>100 µM
same,growth percentage,"CCRF-CEM; CCRF-CEM (Leukemia), 10 μM, 48 hours",-35.45%
same,GI50,"CCRF-CEM; Homo sapiens, Leukemia CCRF-CEM",6.32 µM
same,CC50,"CCRF-CEM; Homo sapiens, Leukemia CCRF-CEM, read-out: LC50 (the source's name)",> 100 µM
same,TGI,CCRF-CEM; Leukemia CCRF-CEM,>100 µM
same,TGI,SF-295; CNS Cancer SF-295,>100 µM
same,GI50,SF-295; [2],7.79 µM
same,LC50 (concentration killing 50% of cells),SF-295; [2],> 100 µM
same,growth percentage,"SF-295; SF-295 (CNS Cancer), 10 μM, 48 hours",23.75%
same,TGI,SF-539; CNS Cancer SF-539,>100 µM
same,GI50,SF-539; [3],14.2 µM
same,LC50 (concentration giving 50% net cell kill),SF-539; [3],> 100 µM
same,growth percentage,"SF-539; SF-539 (CNS Cancer), 10 μM, 48 hours",36.91%
same,TGI,T-47D; Breast Cancer T-47D,>100 µM
same,GI50,"T-47D; Homo sapiens, T47D, Breast Cancer T-47D",8.44 µM
same,CC50,"T-47D; Homo sapiens, T47D, Breast Cancer T-47D, read-out: LC50 (the source's name)",> 100 µM
same,growth percentage,"T-47D; T-47D (Breast Cancer), 10 μM, 48 hours",-31.54%
same,growth percentage,"HOP-62; HOP-62 (Non-Small Cell Lung Cancer), 10 μM, 48 hours",-61.80%
same,GI50,HOP-62; [4],12.3 µM
same,LC50 (50% lethal concentration),HOP-62; [4],> 100 µM
same,TGI,HOP-62; Non-Small Cell Lung Cancer HOP-62,>100 µM
same,growth percentage,"BT-549; BT-549 (Breast Cancer), 10 μM, 48 hours",58.35%
same,TGI,BT-549; Breast Cancer BT-549,>100 µM
same,GI50,"BT-549; Homo sapiens, Breast Cancer BT-549",10.6 µM
same,CC50,"BT-549; Homo sapiens, Breast Cancer BT-549, read-out: LC50 (the source's name)",> 100 µM
same,growth percentage,"DU-145; DU-145 (Prostate Cancer), 10 μM, 48 hours",-41.83%
same,GI50,"DU-145; Homo sapiens, Prostate Cancer DU-145",4.79 µM
same,CC50,"DU-145; Homo sapiens, Prostate Cancer DU-145, read-out: LC50 (the source's name)",> 100 µM
same,TGI,DU-145; Prostate Cancer DU-145,>100 µM
same,GI50,"SN12C; Homo sapiens, Renal Cancer SN12C",5.42 µM
same,CC50,"SN12C; Homo sapiens, Renal Cancer SN12C, read-out: LC50 (the source's name)",> 100 µM
same,TGI,SN12C; Renal Cancer SN12C,>100 µM
same,growth percentage,"SN12C; SN12C (Renal Cancer), 10 μM, 48 hours",15.89%
same,GI50,NCI-H23; [5],6.65 µM
same,LC50,NCI-H23; [5],> 100 µM
same,growth percentage,"NCI-H23; NCI-H23 (Non-Small Cell Lung Cancer), 10 μM, 48 hours",49.19%
same,TGI,NCI-H23; Non-Small Cell Lung Cancer NCI-H23,>100 µM
same,TGI,HS 578T; Breast Cancer HS 578T,>100 µM
same,growth percentage,"HS 578T; HS 578T (Breast Cancer), 10 μM, 48 hours",60.88%
same,GI50,"HS 578T; Homo sapiens, Breast Cancer HS 578T",4.77 µM
same,CC50,"HS 578T; Homo sapiens, Breast Cancer HS 578T, read-out: LC50 (the source's name)",> 100 µM
same,GI50,"SK-MEL-28; Homo sapiens, Melanoma SK-MEL-28",> 100 µM
same,CC50,"SK-MEL-28; Homo sapiens, Melanoma SK-MEL-28, read-out: LC50 (the source's name)",> 100 µM
same,TGI,SK-MEL-28; Melanoma SK-MEL-28,>100 µM
same,growth percentage,"SK-MEL-28; SK-MEL-28 (Melanoma), 10 μM, 48 hours",-91.38%
same,GI50,K-562; [6],7.8 µM
same,"LC50 (lethal concentration, 50% cell kill)",K-562; [6],> 100 µM
same,growth percentage,"K-562; K-562 (Leukemia), 10 μM, 48 hours",-65.71%
same,TGI,K-562; Leukemia K-562,>100 µM
same,TGI,HCT-116; Colon Cancer HCT-116,>100 µM
same,growth percentage,"HCT-116; HCT-116 (Colon Cancer), 10 μM, 48 hours",-83.19%
same,GI50,HCT-116; [7],5.42 µM
same,LC50 (50% lethal concentration),HCT-116; [7],> 100 µM
same,GI50,"NCI/ADR-RES; Homo sapiens, Ovarian Cancer NCI/ADR-RES",22.5 µM
same,CC50,"NCI/ADR-RES; Homo sapiens, Ovarian Cancer NCI/ADR-RES, read-out: LC50 (the source's name)",> 100 µM
same,growth percentage,"NCI/ADR-RES; NCI/ADR-RES (Ovarian Cancer), 10 μM, 48 hours",-4.00%
same,TGI,NCI/ADR-RES; Ovarian Cancer NCI/ADR-RES,>100 µM
same,GI50,"NCI-H460; Homo sapiens, Non-Small Cell Lung Cancer NCI-460",4.15 µM
same,CC50,"NCI-H460; Homo sapiens, Non-Small Cell Lung Cancer NCI-460, read-out: LC50 (the source's name)",> 100 µM
same,growth percentage,"NCI-H460; NCI-H460 (Non-Small Cell Lung Cancer), 10 μM, 48 hours",-66.36%
same,TGI,NCI-H460; Non-Small Cell Lung Cancer NCI-460,>100 µM
same,Toxicity (%),human PC-3 cells,47.2%
same,GI % (10 μM),human PC-3 cells; 10 μM,100%
same,TGI,U251,>100 µM
same,GI50,"U251; Homo sapiens, U-251",4.82 µM
same,LC50 (concentration killing 50% of cells),"U251; Homo sapiens, U-251",> 100 µM
same,growth percentage,"786-0; 786-0 (Renal Cancer), 10 μM, 48 hours",25.31%
same,GI50,"786-0; Homo sapiens, 786-0, Renal Cancer 786-O",23.5 µM
same,CC50,"786-0; Homo sapiens, 786-0, Renal Cancer 786-O, read-out: LC50 (the source's name)",> 100 µM
same,TGI,786-0; Renal Cancer 786-O,>100 µM
same,GI50,"RXF 393; Homo sapiens, Renal Cancer RXF 393",4.55 µM
same,CC50,"RXF 393; Homo sapiens, Renal Cancer RXF 393, read-out: LC50 (the source's name)",> 100 µM
same,growth percentage,"RXF 393; RXF 393 (Renal Cancer), 10 μM, 48 hours",20.51%
same,TGI,RXF 393; Renal Cancer RXF 393,>100 µM
same,growth percentage,"COLO 205; COLO 205 (Colon Cancer), 10 μM, 48 hours",-81.49%
same,TGI,COLO 205; Colon Cancer COLO 205,>100 µM
same,GI50,COLO 205; [8],12.2 µM
same,LC50 (50% lethal concentration),COLO 205; [8],> 100 µM
same,"inhibition effect in different cancer cell lines (summary of the NCI data, in words)",[1]; 48 hours,preferable inhibition effects in leukemia and colon cancer cells
same,Mean (mean growth percentage of the tested cancer cell lines),"[1]; 48 hours, all tested cell lines",−14.37%
same,cytotoxicity in the first stage (in words),[1]; basis for selection for the five-dose test,potential cytotoxicity
same,GI50,"NCI-H226; Homo sapiens, Non-Small Cell Lung Cancer NCI-H226",7.77 µM
same,CC50,"NCI-H226; Homo sapiens, Non-Small Cell Lung Cancer NCI-H226, read-out: LC50 (the source's name)",> 100 µM
same,growth percentage,"NCI-H226; NCI-H226 (Non-Small Cell Lung Cancer), 10 μM, 48 hours",49.94%
same,TGI,NCI-H226; Non-Small Cell Lung Cancer NCI-H226,>100 µM
same,GI50,"IGROV1; Homo sapiens, IGROV-1, Ovarian Cancer IGROV1",5.94 µM
same,CC50,"IGROV1; Homo sapiens, IGROV-1, Ovarian Cancer IGROV1, read-out: LC50 (the source's name)",> 100 µM
same,growth percentage,"IGROV1; IGROV1 (Ovarian Cancer), 10 μM, 48 hours",3.23%
same,TGI,IGROV1; Ovarian Cancer IGROV1,>100 µM
same,TGI,SW-620; Colon Cancer SW-620,>100 µM
same,GI50,SW-620; [9],5.14 µM
same,LC50 (concentration killing 50% of cells),SW-620; [9],> 100 µM
same,growth percentage,"SW-620; SW-620 (Colon Cancer), 10 μM, 48 hours",-73.67%
same,TGI,HT29; Colon Cancer HT29,>100 µM
same,growth percentage,"HT29; HT29 (Colon Cancer), 10 μM, 48 hours",-80.89%
same,GI50,"HT29; Homo sapiens, HT-29, Colon Cancer HT29",7.84 µM
same,CC50,"HT29; Homo sapiens, HT-29, Colon Cancer HT29, read-out: LC50 (the source's name)",> 100 µM
same,TGI,KM12; Colon Cancer KM12,>100 µM
same,GI50,"KM12; Homo sapiens, Colon Cancer KM12",2.5 µM
same,CC50,"KM12; Homo sapiens, Colon Cancer KM12, read-out: LC50 (the source's name)",> 100 µM
same,growth percentage,"KM12; KM12 (Colon Cancer), 10 μM, 48 hours",-47.09%
same,GI50,"SK-MEL-5; Homo sapiens, Melanoma SK-MEL-5",4.1 µM
same,CC50,"SK-MEL-5; Homo sapiens, Melanoma SK-MEL-5, read-out: LC50 (the source's name)",> 100 µM
same,TGI,SK-MEL-5; Melanoma SK-MEL-5,>100 µM
same,growth percentage,"SK-MEL-5; SK-MEL-5 (Melanoma), 10 μM, 48 hours",59.18%
